Measured values: the supplement of paper PMC11061612

Columns and labels:
Paclitaxel = compound: CC(=O)O[C@H]1C(=O)[C@@]2(C)[C@H]([C@H](OC(=O)c3ccccc3)[C@]3(O)C[C@H](OC(=O)[C@H](O)[C@@H](NC(=O)c4ccccc4)c4ccccc4)C(C)=C1C3(C)C)[C@]1(OC(C)=O)CO[C@@H]1C[C@@H]2O [Paclitaxel]; conditions: max 3 µM
Procedure, shortened: (§1)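 Cancer cell lines were plated in 1536-well plates in 7.5 μl of DMEM/F12 or RPMI with 10% FBS and kept 24 hours at 37°C and 5% CO2 before 72 hours of dosing, with final DMSO typically 0.2%. CellTiter-Glo 2.0 luminescence measured viability, scaled between blank-well and DMSO-well means. Dose responses were fitted to a two-parameter logistic curve with a non-linear mixed effects model. This fit gives the single-agent IC50.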

Savolitinib = compound: C[C@@H](c1ccc2nccn2c1)n1nnc2ncc(-c3cnn(C)c3)nc21 [Savolitinib]; conditions: max 1 µM
Procedure, shortened: as §1

Etoposide = compound: COc1cc([C@@H]2c3cc4c(cc3[C@@H](O[C@@H]3O[C@@H]5CO[C@@H](C)O[C@H]5[C@H](O)[C@H]3O)[C@H]3COC(=O)[C@H]23)OCO4)cc(OC)c1O [Etoposide]; conditions: max 10 µM
Procedure, shortened: as §1

AZD7648 = compound: Cc1cc2ncnn2cc1Nc1ncc2c(n1)n(C1CCOCC1)c(=O)n2C [AZD7648]; conditions: max 10 µM
Procedure, shortened: as §1

AZD1390 = compound: CC(C)n1c(=O)n(C)c2cnc3cc(F)c(-c4ccc(OCCCN5CCCCC5)nc4)cc3c21 [AZD1390]; conditions: max 0.3 µM
Procedure, shortened: as §1

SRA737 = compound: N#Cc1cnc(Nc2cc(NC[C@H]3CNCCO3)c(C(F)(F)F)cn2)cn1 [SRA737]; conditions: max 10 µM
Procedure, shortened: as §1

AZD5153 = compound: COc1nnc2ccc(N3CCC(c4ccc(OCCN5CCN(C)C(=O)[C@H]5C)cc4)CC3)nn12 [AZD5153]; conditions: max 1 µM
Procedure, shortened: as §1

AZD4320 = compound: CN(CC[C@H](CSC1=CC=CC=C1)NC2=C(C=C(C=C2)S(=O)(=O)NC(=O)C3=CC=C(C=C3)N4CCC(CC4)[C@H](C5=CC=CC=C5C6=CC=C(C=C6)Cl)O)S(=O)(=O)C(F)(F)F)CCO [AZD4320]; conditions: max 1 µM
Procedure, shortened: as §1

Venetoclax = compound: CC1(C)CCC(CN2CCN(c3ccc(C(=O)NS(=O)(=O)c4ccc(NCC5CCOCC5)c([N+](=O)[O-])c4)c(Oc4cnc5[nH]ccc5c4)c3)CC2)=C(c2ccc(Cl)cc2)C1 [Venetoclax]; conditions: max 1 µM
Procedure, shortened: as §1

Alisertib = compound: COc1cc(Nc2ncc3c(n2)-c2ccc(Cl)cc2C(c2c(F)cccc2OC)=NC3)ccc1C(=O)O [Alisertib]; conditions: max 10 µM
Procedure, shortened: as §1

Trametinib = compound: CC(=O)Nc1cccc(-n2c(=O)n(C3CC3)c(=O)c3c(Nc4ccc(I)cc4F)n(C)c(=O)c(C)c32)c1 [Trametinib]; conditions: max 1 µM
Procedure, shortened: as §1

Olaparib = compound: O=C(c1cc(Cc2n[nH]c(=O)c3ccccc23)ccc1F)N1CCN(C(=O)C2CC2)CC1 [Olaparib]; conditions: max 10 µM
Procedure, shortened: as §1

SN-38 = compound: CCc1c2c(nc3ccc(O)cc13)-c1cc3c(c(=O)n1C2)COC(=O)[C@]3(O)CC [SN-38]; conditions: max 0.3 µM
Procedure, shortened: as §1

[1] = compound: O=C(Nc1ccc2[nH]nc(-c3ccncc3)c2c1)[C@@H]1CCN(CC(=O)N2CCN(c3ccc(-c4ncccn4)cc3)CC2)C1; conditions: max 5 µM
Procedure, shortened: as §1

Prexasertib = compound: COc1cccc(OCCCN)c1-c1cc(Nc2cnc(C#N)cn2)n[nH]1 [Prexasertib]; conditions: max 1 µM
Procedure, shortened: as §1

AZD8186 = compound: C[C@@H](Nc1cc(F)cc(F)c1)c1cc(C(=O)N(C)C)cc2c(=O)cc(N3CCOCC3)oc12 [AZD8186]; conditions: max 10 µM
Procedure, shortened: as §1

Palbociclib = compound: CC(=O)c1c(C)c2cnc(Nc3ccc(N4CCNCC4)cn3)nc2n(C2CCCC2)c1=O [Palbociclib]; conditions: max 10 µM
Procedure, shortened: as §1

AZD5363 = compound: C1CN(CCC1(C(=O)N[C@@H](CCO)C2=CC=C(C=C2)Cl)N)C3=NC=NC4=C3C=CN4 [AZD5363]; conditions: max 10 µM
Procedure, shortened: as §1

AZD0156 = compound: CN(C)CCCOc1ccc(-c2ccc3ncc4c(c3c2)n(C2CCOCC2)c(=O)n4C)cn1 [AZD0156]; conditions: max 3 µM
Procedure, shortened: as §1

SG3199 = compound: CC1=CN2[C@@H](C1)C=NC3=CC(=C(C=C3C2=O)OC)OCCCCCOC4=C(C=C5C(=C4)N=C[C@@H]6CC(=CN6C5=O)C)OC [SG3199]; conditions: max 0.001 µM
Procedure, shortened: as §1

AZD2811 = compound: CCN(CCO)CCCOc1ccc2c(Nc3cc(CC(=O)Nc4cccc(F)c4)[nH]n3)ncnc2c1 [AZD2811]; conditions: max 1 µM
Procedure, shortened: as §1

Lapatinib = compound: CS(=O)(=O)CCNCc1ccc(-c2ccc3ncnc(Nc4ccc(OCc5cccc(F)c5)c(Cl)c4)c3c2)o1 [Lapatinib]; conditions: max 10 µM
Procedure, shortened: as §1

Gemcitabine = compound: Nc1ccn([C@@H]2O[C@H](CO)[C@@H](O)C2(F)F)c(=O)n1 [Gemcitabine]; conditions: max 0.3 µM
Procedure, shortened: as §1

Selumetinib = compound: Cn1cnc2c(F)c(Nc3ccc(Br)cc3Cl)c(C(=O)NOCCO)cc21 [Selumetinib]; conditions: max 10 µM
Procedure, shortened: as §1

AZD6738 = compound: C[C@@H]1COCCN1C2=NC(=NC(=C2)C3(CC3)[S@](=N)(=O)C)C4=C5C=CNC5=NC=C4 [AZD6738]; conditions: max 10 µM
Procedure, shortened: as §1

Crizotinib = compound: C[C@@H](Oc1cc(-c2cnn(C3CCNCC3)c2)cnc1N)c1c(Cl)ccc(F)c1Cl [Crizotinib]; conditions: max 10 µM
Procedure, shortened: as §1

Dasatinib = compound: CC1=C(C(=CC=C1)Cl)NC(=O)C2=CN=C(S2)NC3=CC(=NC(=N3)C)N4CCN(CC4)CCO [Dasatinib]; conditions: max 2 µM
Procedure, shortened: as §1

AZD5991 = compound: Cc1c2c(nn1C)CSCc1cc(n(C)n1)CSc1cc(c3ccccc3c1)OCCCc1c(C(=O)O)n(C)c3c-2c(Cl)ccc13 [AZD5991]; conditions: max 1 µM
Procedure, shortened: as §1

Doxorubicin = compound: COc1cccc2c1C(=O)c1c(O)c3c(c(O)c1C2=O)C[C@@](O)(C(=O)CO)C[C@@H]3O[C@H]1C[C@H](N)[C@H](O)[C@H](C)O1 [Doxorubicin]; conditions: max 1 µM
Procedure, shortened: as §1

Carboplatin = compound: C1CC(C1)(C(=O)[O-])C(=O)[O-].N.N.[Pt+2] [Carboplatin]; conditions: max 10 µM
Procedure, shortened: as §1

Taselisib = compound: Cc1nc(-c2cn3c(n2)-c2ccc(-c4cnn(C(C)(C)C(N)=O)c4)cc2OCC3)n(C(C)C)n1 [Taselisib]; conditions: max 10 µM
Procedure, shortened: as §1

MK-2206 = compound: NC1(c2ccc(-c3nc4ccn5c(=O)[nH]nc5c4cc3-c3ccccc3)cc2)CCC1 [MK-2206]; conditions: max 10 µM
Procedure, shortened: as §1

Gefitinib = compound: COc1cc2ncnc(Nc3ccc(F)c(Cl)c3)c2cc1OCCCN1CCOCC1 [Gefitinib]; conditions: max 10 µM
Procedure, shortened: as §1

5-Fluorouracil = compound: O=c1[nH]cc(F)c(=O)[nH]1 [5-Fluorouracil]; conditions: max 20 µM
Procedure, shortened: as §1

AZD1775 = compound: C=CCn1c(=O)c2cnc(Nc3ccc(N4CCN(C)CC4)cc3)nc2n1-c1cccc(C(C)(C)O)n1 [AZD1775]; conditions: max 3 µM
Procedure, shortened: as §1

Cell Line: OCUB-M (Breast Carcinoma)
- IC50, cell viability 72 h (Paclitaxel): 9.26 nM
- IC50, cell viability 72 h (Savolitinib): > 1000 nM
- IC50, cell viability 72 h (Etoposide): 634 nM
- IC50, cell viability 72 h (AZD7648): > 10000 nM
- IC50, cell viability 72 h (AZD1390): > 300 nM
- IC50, cell viability 72 h (SRA737): > 10000 nM
- IC50, cell viability 72 h (AZD5153): > 1000 nM
- IC50, cell viability 72 h (AZD4320): 878 nM
- IC50, cell viability 72 h (Venetoclax): > 1000 nM
- IC50, cell viability 72 h (Alisertib): 2810 nM
- IC50, cell viability 72 h (Trametinib): > 1000 nM
- IC50, cell viability 72 h (Olaparib): > 10000 nM
- IC50, cell viability 72 h (SN-38): 49.2 nM
- IC50, cell viability 72 h [1]: > 5000 nM
- IC50, cell viability 72 h (Prexasertib): 463 nM
- IC50, cell viability 72 h (AZD8186): > 10000 nM
- IC50, cell viability 72 h (Palbociclib): > 10000 nM
- IC50, cell viability 72 h (AZD5363): 429 nM
- IC50, cell viability 72 h (AZD0156): > 3000 nM
- IC50, cell viability 72 h (SG3199): > 1 nM
- IC50, cell viability 72 h (AZD2811): 73.4 nM
- IC50, cell viability 72 h (Lapatinib): 4790 nM
- IC50, cell viability 72 h (Gemcitabine): 91.1 nM
- IC50, cell viability 72 h (Selumetinib): > 10000 nM
- IC50, cell viability 72 h (AZD6738): > 10000 nM
- IC50, cell viability 72 h (Crizotinib): > 10000 nM
- IC50, cell viability 72 h (Dasatinib): > 2000 nM
- IC50, cell viability 72 h (AZD5991): 104 nM
- IC50, cell viability 72 h (Doxorubicin): 241 nM
- IC50, cell viability 72 h (Carboplatin): > 10000 nM
- IC50, cell viability 72 h (Taselisib): 109 nM
- IC50, cell viability 72 h (MK-2206): 1220 nM
- IC50, cell viability 72 h (Gefitinib): > 10000 nM
- IC50, cell viability 72 h (5-Fluorouracil): > 20000 nM
- IC50, cell viability 72 h (AZD1775): > 3000 nM
